Measurements as given in patent publication US10464920B2, “Vicinal primary diamines associated with metal and/or free radical chelation motifs, and active against carbonyl and oxidative stress, and use thereof” (UNIVERSITE AMIENS PICARDIE JULES VERNE, priority 2015, dated 2019).

Tests used:
[1] = Formation of adducts with MGO, kinetic study by HPLC; type: physicochemical; conditions: compound 10 mM, MGO 20 mM, 37° C., after 15 min of incubation
Description: The compounds to be tested are incubated at 37° C. in the presence of MGO or of MDA. A kinetic study aiming to report on the formation of adducts with the MGO or MDA is then carried out via HPLC analysis.
The compounds to be tested (30 μmol) are dissolved in PBS (1.5 mL). An aqueous solution (qsp 1.25 mL) of MGO at 40% in water (250 μmol) is then prepared and in parallel, MDA bis-(diOEt)-acetal (250 μmol) is set to react with a solution of HCl 1N (2 eq) in water (qsp 1.25 mL) for 1 h at room temperature. An aqueous solution of NaOH 0.05N is also required to neutralise the reaction medium (5 mL).
The solution of the compound to be tested (625 μL—final concentration in the medium=10 mM) is then set to react with the solution of MGO or of MDA prepared extemporaneously (125 μL—final concentration in the medium=20 mM) in the presence of NaOH 0.05 N (0.5 mL).
The various mixtures are then incubated in the oven at 37° C. for 24 h.
A sampling of each mixture (100 μL) is taken at regular intervals of time (0.25; 0.5; 1; 5 and 24 h) and stored at −20° C. in order to stop the reaction. After dilution in a MeCN/H2O 98:2 mixture at room temperature, the HPLC analysis is carried out on a Shimadzu LCMS-2020 apparatus (UV chromatogram at 190 nm and mass spectrum in positive electrospray ionisation mode (ESI+)) after separation on the Waters Acquity column using a gradient of solvents H2O+HCOOH 0.1%/MeCN+HCOOH 0.1% (98/2 for 2 min, then 55/45 for 2 min and 45/55 for 3 min) with a flow rate of 0.3 mL/min at 40° C. and an injection of volume of 1 (“detection mode: scan, interface voltage: tuning file, DL voltage: 100 V, Q-array DC: 40 V, Q-array RF: 40 V”). A blank is first of all carried out using a solution containing the reaction medium without scavenger. Then, a free scavenger solution at 10 mM is used as a negative control and the carnosine as a reference of the literature. The proportion of adducts formed with the MGO or MDA (generally, tR=4.1 to 6.8 min) is then measured in relation to the quantity of remaining free scavenger (generally, tR=0.8 to 4.6 min) after measurement of the area under the curve of the corresponding peaks on the UV spectrum (measurements taken for a representative sample).

[2] = ORACFL test (Oxygen Radical Absorbance Capacity) using fluorescein/AAPH; type: physicochemical; conditions: compounds at 10 μM; for ORACFL: mean ± SEM of three independent experiments in triplicate
Description: The antioxidant properties of the compounds according to the invention were evaluated using a ORACFL test using fluorescein (J. Agric. Food Chem., 2004 52, 48-54; J. Agric. Food Chem., 2005, 53, 4290-4302). As such, peroxide radicals, generated in the presence of AAPH (2,2′-azobis(2-methylpropionamidine)dihydrochloride) at 37° C., react with this fluorescent sensor in order to give a non-fluorescent product. The protective effect of the test compounds can then be determined by following the decay curve of the fluorescence of the fluorescein over time and be measuring the area under the curve (AUC) of the sample in relation to that of a control corresponding to an absence of antioxidant.
The trolox (6-hydroxy-2,5,7,8-tetramethylchroman-2-carboxylic acid), a water-soluble analogue of vitamin E, is used as a standard for calculating the antioxidant capacity (ORACFL) of the compounds tested at 10 μM, expressed in […] of tested compound. This value is as such obtained using the straight-line calibration equation giving the area under the curve according to the various concentrations of trolox (Bioorg. Med. Chem., 2015, 23, 1135-1148) (FIG. 11).
A solution of fluorescein (FL) (12 nM; 150 μL) is introduced into a black 96-well plate (Dutscher, Brumath, France). The compounds to be tested (1-20 μM; 25 μL) or trolox (1-50 μM; 25 μL) dissolved in D-PBS are added into each well. After equilibration of the plate during an incubation at 37° C. for a minimum of 30 min, the radical reactions are initiated using a solution of AAPH prepared extemporaneously (30 mM; 25 μL). The fluorescence (λEx: 485 nm; λEm: 520 nm) is measured every 90 seconds for 60 cycles using a temperature-controlled Tecan Infinite® 200 PRO microplate reader (measurements taken in triplicates during three independent experiments).

[3] = tested on: low-density lipoproteins (LDLs); experiment: Antiradical properties: inhibition of lipid peroxidation in AAPH-induced oxidation of LDLs; type: biochemical; conditions: high concentration (100 μM)
Description: The antiradical properties of the various compounds are determined by inhibition of the lipid peroxidation in the in vitro model of the oxidation of the low-density lipoproteins (LDLs) (Free Radic. Biol. Med., 1992, 13, 341-390). The lipid peroxidation is initiated by the attack by free radicals of a double bond of a polyunsaturated fatty acid present in the LDLs. […] Once initiated, the oxidation of the LDLs is a chain reaction of lipid peroxidation generated by the free radicals. The oxidation in vitro of the LDLs is induced at 37° C. by the adding of the water-soluble compound 2,2′-Azobis(2-methylpropionamidine)dihydrochloride (AAPH), which generates free radicals during the spontaneous thermal breakdown thereof
Briefly, the oxidation, carried out in a 96-well plate, is induced at 37° C. by adding 20 μL of a solution of AAPH at 2 mM in D-PBS at 160 μL of LDL (100 μg/mL) in the presence or absence of 20 μL of the various solutions of the compounds to be tested dissolved in D-PBS (0.1 to 100 μM in final concentrations). The LDLs alone without adding AAPH are used as a negative control. Each oxidation is carried out in double. During the oxidation, the formation of the conjugated dienes is followed by the measurement of the optical density at 234 nm every 10 minutes for 8 h at 37° C. using a temperature-controlled TECAN spectrophotometer. The vitamin E (α-tocopherol) which is a powerful antioxidant recognised in this in vitro model is used as a reference molecule (J. Nutr. Biochem., 2012, 23, 845-51).

[4] = tested on: murine endothelial brain cells (bEnd.3); experiment: Cytotoxicity, cellular viability (CCK-8/WST-8) on bEnd.3; type: cell-based
Description: (§1) The cellular viability is evaluated by a colorimetric method based on the detection of the conversion of a salt of the tetrazolium (WST-8) by the metabolically active cells (CCK-8 kit, Sigma, Lyons, France) (Molecules, 2014, 19(8), 12048-12064; J. Pharmacol. Toxicol. Methods., 2007, 56(1), 58-62). Living cells have mitochondrial dehydrogenases that reduce the WST-8 (2-(2-methoxy-4-nitrophenyl)-3-(4-nitrophenyl)-5-(2,4-disulfophenyl)-2H-tetrazolium), monosodium salt) to formazan of an orange colour, which dissolves directly in the culture medium in the presence of 1-Methoxy PMS (1-methoxy-5-methylphenazinium methyl sulphate). After an incubation for 1 h at 37° C., the absorbance of the formazan is measured at 450 nm. The absorbance is directly proportional to the number of living cells.
(§2) Briefly, the cells are inoculated in 96-well plates at a rate of 5.10^3 cells per well in 100 μL of the suitable medium until subconfluence. The cells are then washed with D-PBS, then treated with various concentrations (10 μM, 100 μM) of the products to be tested in triplicates for 24 and 48 h. A positive control is carried out with 10% of DMSO. The CCK-8 (10 μL) solution is then added to each well for an incubation for 1 h at 37° C. The measurement of the absorbance is taken at 450 nm using a Perkin Elmer 2103 Envision® microplate reader.
(§3) The viability of the cells is expressed as a % of the control (untreated cells) by the mean±standard deviation of triplicates forming a representative experiment or of three independent experiments conducted in triplicate.

[5] = tested on: rat pheochromocytoma cells, treated as neuronal cells (PC12); experiment: Cytotoxicity, cellular viability (CCK-8/WST-8) on PC12; type: cell-based
Description: as §1, §2, §3

[6] = tested on: human fibroblasts (MRC-5); experiment: Cytotoxicity, cellular viability (CCK-8/WST-8) on MRC-5; type: cell-based
Description: as §1, §2, §3

[7] = MRC-5, 10 μM, 24 h of treatment
[8] = MRC-5, 10 μM, 48 h of treatment
[9] = MRC-5, 100 μM, 24 h of treatment
[10] = MRC-5, 100 μM, 48 h of treatment

Structure (SMILES): NCC(N)CCC(=O)N1CCN(C(=O)CCn2cccc(O)c2=O)CC1 (stereo not shown) [Compound 37f, 1-(3-(4-(4,5-diaminopentanoyl)piperazin-1-yl)-3-oxopropyl)-3-hydroxypyridin-2(1H)-one]
- disappearance of the free scavenger to the benefit of adducts with the MGO [1]: almost total disappearance of the free scavenger
- ORACFL [2]: 1.96 ± 0.24 μmol TE/μmol

Structure (SMILES): Cl.Cl.NCC(N)C(=O)N1CCNCC1 (stereo not shown) [Dap-Pip, reference compound]
- antioxidant capacity (ORACFL), in words [2]: absence of activity
- ORACFL [2]: 0 μmol TE/μmol
- anti-radical effect [3]: does not show any anti-radical effect
- viability of the cells as a percentage of the untreated cells ([4]; bEnd.3, 10 μM, 24 h of treatment): 123%
- viability of the cells as a percentage of the untreated cells ([4]; bEnd.3, 10 μM, 48 h of treatment): 131%
- viability of the cells as a percentage of the untreated cells ([4]; bEnd.3, 100 μM, 24 h of treatment): 103%
- viability of the cells as a percentage of the untreated cells ([4]; bEnd.3, 100 μM, 48 h of treatment): 142%
- viability of the cells as a percentage of the untreated cells ([5]; PC12, 10 μM, 24 h of treatment): 114%
- viability of the cells as a percentage of the untreated cells ([5]; PC12, 10 μM, 48 h of treatment): 110%
- viability of the cells as a percentage of the untreated cells ([5]; PC12, 100 μM, 24 h of treatment): 120%
- viability of the cells as a percentage of the untreated cells ([5]; PC12, 100 μM, 48 h of treatment): 102%
- viability of the cells as a percentage of the untreated cells [6, 7]: 125%
- viability of the cells as a percentage of the untreated cells [6, 8]: 113%
- viability of the cells as a percentage of the untreated cells [6, 9]: 128%
- viability of the cells as a percentage of the untreated cells [6, 10]: 111%

Structure (SMILES): NCCC(=O)N[C@@H](Cc1cnc[nH]1)C(=O)O [Carnosine, carnosine, reference compound]
- antioxidant capacity (ORACFL), in words [2]: very low activity
- ORACFL [2]: 0.08 ± 0.05 μmol TE/μmol

Structure (SMILES): NCC(N)CC(=O)N1CCN(C(=O)CCn2cccc(O)c2=O)CC1 (stereo not shown) [Compound 37d, 1-(3-(4-(3,4-diaminobutanoyl)piperazin-1-yl)-3-oxopropyl)-3-hydroxypyridin-2(1H)-one]
- ORACFL [2]: 1.21 ± 0.07 μmol TE/μmol

Structure (SMILES): Cc1c(C)c2c(c(C)c1O)CCC(C)(C(=O)O)O2 (stereo not shown) [Trolox, 6-hydroxy-2,5,7,8-tetramethylchroman-2-carboxylic acid, reference compound]
- ORACFL [2]: 1 μmol TE/μmol

Structure (SMILES): NCC(N)CCC(=O)N1CCN(C(=O)c2cc(O)c(O)c(O)c2)CC1 (stereo not shown) [Compound 30a, 4,5-diamino-1-(4-(3,4,5-trihydroxybenzoyl)piperazin-1-yl)pentan-1-one]
- ORACFL [2]: 0.89 ± 0.10 μmol TE/μmol
- viability of the cells as a percentage of the untreated cells ([4]; mouse, 24 h, 10 μM): 117%
- viability of the cells as a percentage of the untreated cells ([4]; mouse, 24 h, 100 μM): 96%
- viability of the cells as a percentage of the untreated cells ([4]; mouse, 48 h, 10 μM): 95%
- viability of the cells as a percentage of the untreated cells ([4]; mouse, 48 h, 100 μM): 108%
- viability of the cells as a percentage of the untreated cells ([5]; rat, 24 h, 10 μM): 116%
- viability of the cells as a percentage of the untreated cells ([5]; rat, 24 h, 100 μM): 140%
- viability of the cells as a percentage of the untreated cells ([5]; rat, 48 h, 10 μM): 96%
- viability of the cells as a percentage of the untreated cells ([5]; rat, 48 h, 100 μM): 113%
- viability of the cells as a percentage of the untreated cells [6, 7]: 115%
- viability of the cells as a percentage of the untreated cells [6, 8]: 101%
- viability of the cells as a percentage of the untreated cells [6, 9]: 112%
- viability of the cells as a percentage of the untreated cells [6, 10]: 103%
